# According to patent publication US9902702B2, “Spirocycloheptanes as inhibitors of rock” (BRISTOL-MYERS SQUIBB COMPANY, priority 2014, dated 2018):
# Structures can show the parent of a compound that is named as a salt.
# Tested on: IL-1 beta-induced coronary stenosis
# Assay: not given
# Conditions: porcine model, long term treatment; cited from earlier work
Compound,coronary constrictive remodeling,coronary stenosis
O=S(=O)(c1cccc2cnccc12)N1CCCNCC1 [fasudil],promote a regression of coronary constrictive remodeling,progressively reduce coronary stenosis

# Biological target: ROCK2 (Homo sapiens, UniProt O75116)
# Sequence (O75116 whole entry, species assumed): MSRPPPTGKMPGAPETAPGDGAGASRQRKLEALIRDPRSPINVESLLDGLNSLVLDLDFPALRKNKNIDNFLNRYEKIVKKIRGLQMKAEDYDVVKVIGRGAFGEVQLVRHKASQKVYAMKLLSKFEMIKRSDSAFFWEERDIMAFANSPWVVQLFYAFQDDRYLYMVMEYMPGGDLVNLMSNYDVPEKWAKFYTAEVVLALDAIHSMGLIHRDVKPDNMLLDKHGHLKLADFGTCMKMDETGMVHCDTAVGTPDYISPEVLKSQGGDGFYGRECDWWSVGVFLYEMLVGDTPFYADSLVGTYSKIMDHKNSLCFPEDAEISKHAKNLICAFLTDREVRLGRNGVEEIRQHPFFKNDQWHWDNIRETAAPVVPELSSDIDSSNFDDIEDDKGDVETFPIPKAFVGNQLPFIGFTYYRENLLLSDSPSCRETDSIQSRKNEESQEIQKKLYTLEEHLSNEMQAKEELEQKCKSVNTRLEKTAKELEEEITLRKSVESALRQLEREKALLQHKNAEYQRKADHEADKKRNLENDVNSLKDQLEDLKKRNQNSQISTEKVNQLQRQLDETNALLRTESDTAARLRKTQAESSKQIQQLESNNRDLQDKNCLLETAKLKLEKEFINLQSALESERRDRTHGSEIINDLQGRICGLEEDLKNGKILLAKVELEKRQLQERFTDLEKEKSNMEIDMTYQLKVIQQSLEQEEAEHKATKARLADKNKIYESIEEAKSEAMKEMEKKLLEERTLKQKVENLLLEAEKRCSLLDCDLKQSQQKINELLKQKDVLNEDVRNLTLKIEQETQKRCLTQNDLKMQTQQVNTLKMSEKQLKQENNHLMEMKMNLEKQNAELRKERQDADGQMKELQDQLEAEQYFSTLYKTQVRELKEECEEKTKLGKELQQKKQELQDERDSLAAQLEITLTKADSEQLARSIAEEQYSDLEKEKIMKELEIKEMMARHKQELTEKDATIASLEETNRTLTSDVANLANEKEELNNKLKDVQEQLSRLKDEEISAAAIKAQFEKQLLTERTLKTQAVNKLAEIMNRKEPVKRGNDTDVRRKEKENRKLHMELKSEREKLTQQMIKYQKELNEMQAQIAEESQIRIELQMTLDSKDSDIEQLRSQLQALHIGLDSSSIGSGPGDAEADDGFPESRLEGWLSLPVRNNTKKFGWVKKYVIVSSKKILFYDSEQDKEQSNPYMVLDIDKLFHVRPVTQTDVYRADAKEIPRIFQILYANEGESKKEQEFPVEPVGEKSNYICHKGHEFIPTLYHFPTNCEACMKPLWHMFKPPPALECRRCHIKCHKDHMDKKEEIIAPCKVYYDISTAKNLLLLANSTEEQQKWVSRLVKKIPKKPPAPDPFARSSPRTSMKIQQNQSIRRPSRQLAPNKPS
# Assay: ROCK assay: phosphorylation of FITC peptide substrate, LABCHIP 3000 mobility shift
# Format: biochemical
# Conditions: 5 μM ATP, 1.5 μM peptide substrate; read-out: ROCK2 Activity (ROCK IC50 range)
# Method in brief: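 IC50 values come from curve-fitting percent kinase inhibition across a compound dilution series. The reaction is started with Rho kinase variant in HEPES pH 7.5 buffer with MgCl2, Brij-35 and DTT, with 5 μM ATP, 1.5 μM FITC-labelled peptide and under 2% DMSO. After EDTA quench, product and substrate are separated by microfluidic mobility shift.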
row,Compound,IC50
1,"O=C1c2ccccc2CN1C1CC2(CC(c3n[nH]c(=O)c4ccccc34)C2)C1 [Example 457, 4-((aR)-6-(1-oxoisoindolin-2-yl)spiro[3.3]heptan-2-yl)phthalazin-1(2H)-one]",15.1 to 100 nM
2,"O=C1N[C@@H](Cc2ccccc2)CN1[C@H]1CC2(C[C@H](c3n[nH]c(=O)c4ccccc43)C2)C1 (stereo partly drawn) [Example 458, 4-((aR)-6-((S)-4-benzyl-2-oxoimidazolidin-1-yl)spiro[3.3]heptan-2-yl)phthalazin-1(2H)-one]",100 to 2100 nM
3,"[H][C@]1(c2n[nH]c(=O)c3ccccc32)C[C@@]2(C[C@H](N3C[C@@H](Cc4ccccc4)NC3=O)C2)C1 (stereo partly drawn) [Example 459, 4-((aR)-6-((R)-4-benzyl-2-oxoimidazolidin-1-yl)spiro[3.3]heptan-2-yl)phthalazin-1(2H)-one]",100 to 2100 nM
4,"O=c1[nH]nc([C@H]2CC3(C[C@H](Nc4ccccc4[N+](=O)[O-])C3)C2)c2ccccc12 (stereo partly drawn) [Example 460, 4-((aR)-6-((2-nitrophenyl)amino)spiro[3.3]heptan-2-yl)phthalazin-1(2H)-one]",15.1 to 100 nM
5,"[H][C@]1(c2n[nH]c(=O)c3ccccc32)C[C@]2(C[C@@H](n3c(=O)[nH]c4ccccc43)C2)C1 (stereo partly drawn) [Example 461, 4-((aR)-6-(2-oxo-2,3-dihydro-1H-benzo[d]imidazol-1-yl)spiro[3.3]heptan-2-yl)phthalazin-1(2H)one]",100 to 2100 nM
6,"O=C(N[C@H]1CC2(C1)C[C@H](c1n[nH]c(=O)c3ccccc31)C2)c1cnn2cccc(C3CC3)c12 (stereo partly drawn) [Example 462, 4-cyclopropyl-N-((aR)-6-(4-oxo-3,4-dihydrophthalazin-1-yl)spiro[3.3]heptan-2-yl)pyrazolo[1,5-a]pyridine-3-carboxamide]",15.1 to 100 nM
7,"Cn1cc(-c2cnc(C(=O)N[C@H]3CC4(C3)C[C@H](c3n[nH]c(=O)c5ccccc53)C4)c(F)c2)cn1 (stereo partly drawn) [Example 463, 3-fluoro-5-(1-methyl-1H-pyrazol-4-yl)-N-((aR)-6-(4-oxo-3,4-dihydrophthalazin-1-yl)spiro[3.3]heptan-2-yl)picolinamide]",15.1 to 100 nM
8,"O=C(OC1CC2(C1)CC(c1n[nH]c(=O)c3ccccc13)C2)N1Cc2ccccc2C1 (stereo not shown) [Example 464, 6-(4-oxo-3,4-dihydrophthalazin-1-yl)spiro[3.3]heptan-2-yl isoindoline-2-carboxylate]",100 to 2100 nM
9,"O=C(NC1CC2(C1)CC(c1n[nH]c(=O)c3ccccc13)C2)c1cnn2ccncc12 [Example 467, N-((aR)-6-(4-oxo-3,4-dihydrophthalazin-1-yl)spiro[3.3]heptan-2-yl)pyrazolo[1,5-a] pyrazine-3-carboxamide]",15.1 to 100 nM
10,"O=C(NC1CC2(C1)CC(c1n[nH]c(=O)c3ccccc13)C2)C1Cc2cc(Br)ccc2N1 [Example 468, 5-bromo-N-((aR)-6-(4-oxo-3,4-dihydrophthalazin-1-yl)spiro[3.3]heptan-2-yl)indoline-2-carboxamide,TFA]",100 to 2100 nM
11,"CC(C)(Oc1ccc2c(C(=O)N[C@H]3CC4(C3)C[C@H](c3n[nH]c(=O)c5ccccc53)C4)cnn2c1)C(=O)O (stereo partly drawn) [Example 469, 2-methyl-2-((3-(((aR)-6-(4-oxo-3,4-dihydrophthalazin-1-yl)spiro[3.3]heptan-2-yl)carbamoyl)pyrazolo[1,5-a]pyridin-6-yl)oxy)propanoic acid]",15.1 to 100 nM

# Further lines, results first:
row,IC50,Compound
1,0.2 to 2 nM,"[2H]C([2H])([2H])n1cc(-c2ccn3c(C(=O)N[C@H]4CC5(C4)C[C@H](c4n[nH]c(=O)c6ccccc64)C5)cnc3c2)cn1 (stereo partly drawn) [Example 442, 7-(1-(methyl-d3)-1H-pyrazol-4-yl)-N-((aR)-6-(4-oxo-3,4-dihydrophthalazin-1-yl)spiro[3.3]heptan-2-yl)imidazo[1,2-a]pyridine-3-carboxamide]"
2,0.2 to 2 nM,[H][C@]1(c2n[nH]c(=O)c3ccccc32)C[C@]2(C[C@@H](NC(=O)c3cnc4cc(-c5cnn(C6CCOCC6)c5)ccn34)C2)C1 (stereo partly shown) [Example 443]
3,2.01 to 5 nM,"[H][C@]1(c2n[nH]c(=O)c3ccccc32)C[C@]2(C[C@@H](NC(=O)c3cnc4cc(-c5cn(C(C)C)nc5C(F)(F)F)ccn34)C2)C1 (stereo partly drawn) [Example 444, 7-(1-isopropyl-3-(trifluoromethyl)-1H-pyrazol-4-yl)-N-((aR)-6-(4-oxo-3,4-dihydrophthalazin-1-yl)spiro[3.3]heptan-2-yl)imidazo[1,2-a]pyridine-3-carboxamide]"
4,15.1 to 100 nM,"[H][C@]1(c2n[nH]c(=O)c3ccccc32)C[C@]2(C[C@@H](NC(=O)c3ccc(-c4cnn(CC)c4)c(F)c3)C2)C1 (stereo partly drawn) [Example 445, 4-(1-ethyl-1H-pyrazol-4-yl)-3-fluoro-N-((aR)-6-(4-oxo-3,4-dihydrophthalazin-1-yl)spiro[3.3]heptan-2-yl)benzamide]"
5,2.01 to 5 nM,"[H][C@]1(c2n[nH]c(=O)c3ccccc32)C[C@]2(C[C@@H](NC(=O)c3ccc(-c4cnn(C(C)C)c4)c(F)c3)C2)C1 (stereo partly drawn) [Example 446, 3-fluoro-4-(1-isopropyl-1H-pyrazol-4-yl)-N-((aR)-6-(4-oxo-3,4-dihydrophthalazin-1-yl)spiro[3.3]heptan-2-yl)benzamide]"
6,2.01 to 5 nM,"[H][C@]1(c2n[nH]c(=O)c3ccccc32)C[C@]2(C[C@@H](NC(=O)c3ccc(-c4cnn(C)c4C(F)(F)F)c(F)c3)C2)C1 (stereo partly drawn) [Example 447, 3-fluoro-4-(1-methyl-5-(trifluoromethyl)-1H-pyrazol-4-yl)-N-((aR)-6-(4-oxo-3,4-dihydrophthalazin-1-yl)spiro[3.3]heptan-2-yl)benzamide]"
7,2.01 to 5 nM,"[H][C@]1(c2n[nH]c(=O)c3ccccc32)C[C@]2(C[C@@H](NC(=O)c3ccc(-c4cnn(C5CC5)c4)c(F)c3)C2)C1 (stereo partly drawn) [Example 448, 4-(1-cyclopropyl-1H-pyrazol-4-yl)-3-fluoro-N-((aR)-6-(4-oxo-3,4-dihydrophthalazin-1-yl)spiro[3.3]heptan-2-yl)benzamide]"
8,5.1 to 15 nM,"[H][C@]1(c2n[nH]c(=O)c3ccccc32)C[C@]2(C[C@@H](NC(=O)c3ccc(-c4cnn(C5CCOCC5)c4)c(F)c3)C2)C1 (stereo partly drawn) [Example 449, 3-fluoro-N-((aR)-6-(4-oxo-3,4-dihydrophthalazin-1-yl)spiro[3.3]heptan-2-yl)-4-(1-(tetrahydro-2H-pyran-4-yl)-1H-pyrazol-4-yl)benzamide]"
9,15.1 to 100 nM,"[H][C@]1(c2n[nH]c(=O)c3ccccc32)C[C@]2(C[C@@H](NC(=O)c3ccc(-c4cnn(C)c4)cn3)C2)C1 (stereo partly drawn) [Example 450, 5-(1-methyl-1H-pyrazol-4-yl)-N-((aR)-6-(4-oxo-3,4-dihydrophthalazin-1-yl)spiro[3.3]heptan-2-yl)picolinamide]"
10,5.1 to 15 nM,"[H][C@]1(c2n[nH]c(=O)c3ccccc32)C[C@]2(C[C@@H](NC(=O)c3ccc(-c4cnn(C)c4)cc3)C2)C1 (stereo partly drawn) [Example 451, 4-(1-methyl-1H-pyrazol-4-yl)-N-((aR)-6-(4-oxo-3,4-dihydrophthalazin-1-yl)spiro[3.3]heptan-2-yl)benzamide]"
11,0.2 to 2 nM,"[H][C@]1(c2n[nH]c(=O)c3ccccc32)C[C@]2(C[C@@H](NC(=O)c3cnc4cc(-c5cccnc5)ccn34)C2)C1 (stereo partly drawn) [Example 452, N-((aR)-6-(4-oxo-3,4-dihydrophthalazin-1-yl)spiro[3.3]heptan-2-yl)-7-(pyridin-3-yl)imidazo[1,2-a]pyridine-3-carboxamide]"
12,15.1 to 100 nM,[H][C@]1(c2n[nH]c(=O)c3ccccc32)C[C@]2(C[C@@H](NC(=O)c3cn4ccc(-c5cccnc5)cc4n3)C2)C1 (stereo partly shown) [Example 453]
13,15.1 to 100 nM,"[H][C@]1(c2n[nH]c(=O)c3ccccc32)C[C@]2(C[C@@H](NC(=O)c3cn4ccc(-c5cnc(C)s5)cc4n3)C2)C1 (stereo partly drawn) [Example 454, 7-(2-methylthiazol-5-yl)-N-((aR)-6-(4-oxo-3,4-dihydrophthalazin-1-yl)spiro[3.3]heptan-2-yl)imidazo[1,2-a]pyridine-2-carboxamide]"
14,2.01 to 5 nM,"Cc1ncc(-c2ccn3c(C(=O)NC4CC5(C4)CC(c4n[nH]c(=O)c6ccccc46)C5)cnc3c2)s1 [Example 455, 7-(2-methylthiazol-5-yl)-N-((aR)-6-(4-oxo-3,4-dihydrophthalazin-1-yl)spiro[3.3]heptan-2-yl)imidazo[1,2-a]pyridine-3-carboxamide]"
15,5.1 to 15 nM,"CS(=O)(=O)c1ccn2c(C(=O)N[C@H]3CC4(C3)C[C@H](c3n[nH]c(=O)c5ccccc53)C4)cnc2c1 (stereo partly drawn) [Example 465, 7-(methylsulfonyl)-N-((aR)-6-(4-oxo-3,4-dihydrophthalazin-1-yl)spiro[3.3]heptan-2-yl)imidazo[1,2-a]pyridine-3-carboxamide]"
16,0.2 to 2 nM,"O=C(N[C@H]1CC2(C1)C[C@H](c1n[nH]c(=O)c3ccccc31)C2)c1cnc2cc(N3CCOCC3)ccn12 (stereo partly drawn) [Example 470, 7-morpholino-N-((aR)-6-(4-oxo-3,4-dihydrophthalazin-1-yl)spiro[3.3]heptan-2-yl)imidazo[1,2-a]pyridine-3-carboxamide, TFA]"
17,2.01 to 5 nM,"[H][C@]1(c2n[nH]c(=O)c3ccccc32)C[C@]2(C[C@@H](NC(=O)c3cnc4cc(OC5CCC(F)(F)CC5)ccn34)C2)C1 (stereo partly drawn) [Example 471, 7-((4,4-difluoro-cyclohexyl)oxy)-N-((aR)-6-(4-oxo-3,4-dihydro-phthalazin-1-yl)spiro[3.3]heptan-2-yl)imidazo[1,2-a]pyridine-3-carboxamide, TFA]"

# Tested on: rat stroke model
# Assay: not given
# Conditions: cited from earlier work
row,Compound,infarct size and neurologic deficit
1,O=S(=O)(c1cccc2cnccc12)N1CCCNCC1 [fasudil],reduce both the infarct size and neurologic deficit
